In series [1] the target is T1, LasB (Pseudomonas aeruginosa, UniProt Q02RJ6). As to conditions: Figure 1; read-out: IC50 (reported LasB inhibitors, Figure 1); cited from earlier work.
Series [2] addresses ColH-PD (Hathewaya histolytica, UniProt Q46085). Put plainly: biochemical. Also on record: species or system C. histolyticum.
Series [3] addresses T2, MMP-1 (Homo sapiens, UniProt P03956).
T2 sequence (P03956 100-469): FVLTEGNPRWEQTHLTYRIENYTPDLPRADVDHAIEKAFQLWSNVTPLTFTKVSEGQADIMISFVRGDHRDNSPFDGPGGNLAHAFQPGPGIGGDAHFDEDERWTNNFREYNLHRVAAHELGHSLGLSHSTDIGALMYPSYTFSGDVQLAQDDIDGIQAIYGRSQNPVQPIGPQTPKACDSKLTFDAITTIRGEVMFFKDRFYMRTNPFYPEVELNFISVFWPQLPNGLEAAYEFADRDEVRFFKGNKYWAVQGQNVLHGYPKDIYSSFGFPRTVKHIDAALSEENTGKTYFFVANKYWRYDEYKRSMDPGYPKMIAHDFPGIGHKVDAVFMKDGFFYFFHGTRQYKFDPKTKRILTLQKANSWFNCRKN
Put plainly: Human off-target inhibition assay, MMP-1. The format is biochemical.

The target in series [4] is MMP-3 (Homo sapiens, UniProt P08254). Put plainly: Human off-target inhibition assay, MMP-3. In kind it is biochemical.
Sequence of MMP-3 (P08254 100-477): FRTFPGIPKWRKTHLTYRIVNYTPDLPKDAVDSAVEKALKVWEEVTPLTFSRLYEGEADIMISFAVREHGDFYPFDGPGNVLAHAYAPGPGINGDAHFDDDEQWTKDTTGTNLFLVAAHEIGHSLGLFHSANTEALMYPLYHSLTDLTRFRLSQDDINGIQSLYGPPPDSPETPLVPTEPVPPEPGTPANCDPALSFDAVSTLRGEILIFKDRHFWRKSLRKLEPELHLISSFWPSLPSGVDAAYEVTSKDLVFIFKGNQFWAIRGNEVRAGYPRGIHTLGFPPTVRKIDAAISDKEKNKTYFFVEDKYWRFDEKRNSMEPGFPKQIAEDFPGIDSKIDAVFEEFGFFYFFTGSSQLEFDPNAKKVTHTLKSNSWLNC
Series [5] has as its target T3, MMP-2 (Homo sapiens, UniProt P08253).
T3 sequence (P08253 110-660): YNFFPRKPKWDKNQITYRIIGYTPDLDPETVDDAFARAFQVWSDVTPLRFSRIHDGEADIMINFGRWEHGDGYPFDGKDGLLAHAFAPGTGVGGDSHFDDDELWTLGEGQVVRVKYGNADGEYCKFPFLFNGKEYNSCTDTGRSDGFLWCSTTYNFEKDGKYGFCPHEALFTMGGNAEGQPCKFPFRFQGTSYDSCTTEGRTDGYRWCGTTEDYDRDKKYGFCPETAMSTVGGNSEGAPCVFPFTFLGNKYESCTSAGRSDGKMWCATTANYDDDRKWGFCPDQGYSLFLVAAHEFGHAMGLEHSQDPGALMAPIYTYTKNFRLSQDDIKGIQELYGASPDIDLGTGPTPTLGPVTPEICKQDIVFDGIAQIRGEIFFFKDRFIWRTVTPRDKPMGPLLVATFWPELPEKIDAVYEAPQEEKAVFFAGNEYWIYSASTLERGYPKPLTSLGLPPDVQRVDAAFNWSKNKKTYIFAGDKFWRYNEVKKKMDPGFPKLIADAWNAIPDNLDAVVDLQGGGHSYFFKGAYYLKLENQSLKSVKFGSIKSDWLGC
In words: Human off-target inhibition assay, MMP-2. In kind it is biochemical.

In series [6] the test system is A549 cells treated with ΔlasB PA14 supernatant. In kind it is cell-based, human. As to conditions: 15% (v/v) ΔlasB PA14 supernatant, MTT.
In series [7] the target is T4, MMP-7 (Homo sapiens, UniProt P09237).
T4 sequence (P09237 95-267): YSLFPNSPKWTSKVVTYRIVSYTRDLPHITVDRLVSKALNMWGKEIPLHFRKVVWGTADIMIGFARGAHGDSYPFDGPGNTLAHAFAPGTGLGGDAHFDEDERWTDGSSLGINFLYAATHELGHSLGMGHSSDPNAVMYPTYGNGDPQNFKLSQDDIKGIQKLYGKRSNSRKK
Put plainly: Human off-target inhibition assay, MMP-7. The format is biochemical.

The nature of series [8]: Cytotoxicity assay, HepG2. The format is cell-based. As to conditions: HepG2 cells; human hepatoma cell line.
Series [9] has as its target HDAC-3 (Homo sapiens, UniProt O15379). Put plainly: Human off-target inhibition assay, HDAC-3. In kind it is biochemical. How it is done: (§1) Table 3 Activities of Four LasB Inhibitors against the Selected MMPs (% of inhibition at 100 μM) and Further Human Off-Targets ^a | column: 3; 12; 13; 23
In series [10] the test system is P. aeruginosa PA14. In words: Antibacterial activity (MIC) assay. The format is cell-based, Pseudomonas aeruginosa.
Series [11] concerns A549 cells treated with wt PA14 supernatant. Put plainly: cells. As to conditions: Homo sapiens, A549, 24 h, read-out: increase in viability of A549 cells.
Series [12] concerns the target T5, HDAC-8 (Homo sapiens, UniProt Q9BY41).
T5 sequence (Q9BY41 1-377): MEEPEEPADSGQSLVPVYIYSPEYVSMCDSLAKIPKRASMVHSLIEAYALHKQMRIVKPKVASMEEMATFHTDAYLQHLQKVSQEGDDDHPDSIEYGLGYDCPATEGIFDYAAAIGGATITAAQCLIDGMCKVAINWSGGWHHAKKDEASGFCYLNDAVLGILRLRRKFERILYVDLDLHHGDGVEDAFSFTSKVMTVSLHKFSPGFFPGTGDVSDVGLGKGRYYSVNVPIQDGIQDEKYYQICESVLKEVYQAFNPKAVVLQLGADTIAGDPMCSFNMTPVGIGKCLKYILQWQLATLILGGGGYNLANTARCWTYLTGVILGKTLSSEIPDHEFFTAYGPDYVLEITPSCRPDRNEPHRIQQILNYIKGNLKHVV
Put plainly: Human off-target inhibition assay, HDAC-8. The format is biochemical. Here is the method: as §1

The target of series [13] is MMP-8 (Homo sapiens, UniProt P22894). Put plainly: Human off-target inhibition assay, MMP-8. In kind it is biochemical.
Sequence of MMP-8 (P22894 101-467): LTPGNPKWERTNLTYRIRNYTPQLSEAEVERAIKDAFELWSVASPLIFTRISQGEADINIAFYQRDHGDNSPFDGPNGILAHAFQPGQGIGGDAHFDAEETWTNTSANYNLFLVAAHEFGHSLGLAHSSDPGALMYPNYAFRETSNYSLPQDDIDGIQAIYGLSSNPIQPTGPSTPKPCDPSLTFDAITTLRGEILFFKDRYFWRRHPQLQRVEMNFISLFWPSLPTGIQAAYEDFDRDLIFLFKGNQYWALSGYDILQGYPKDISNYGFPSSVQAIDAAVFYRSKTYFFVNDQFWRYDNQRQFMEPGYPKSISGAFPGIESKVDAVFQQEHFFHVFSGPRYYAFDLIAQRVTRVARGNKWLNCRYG
For series [14], the system named is A549 cells treated with wt PA14 supernatant. The settings on record: 15% (v/v) wt PA14 supernatant, MTT.
In series [15] the test system is G. mellonella larvae. Put plainly: In vivo Galleria mellonella virulence assay. The settings on record: compound with wt PA14 supernatant, after 6 days.
The nature of series [16]: Cytotoxicity assay, HEK293. In kind it is cell-based. The settings on record: HEK293 cells; human embryonic kidney cells.
Series [17] deals with zebrafish embryos. In words: Zebrafish embryo toxicity (maximum tolerated concentration) assay. The format is in vivo.
The target of series [18] is T1, LasB. Put plainly: LasB inhibition assay (FRET-based, in vitro). The settings on record: for activity of pure LasB: 0.3 nM pure LasB.
Description: LasB Inhibition Assay. The purification of LasB from P. aeruginosa P14 supernatant as well
as the subsequent performance of the FRET-based in vitro inhibition assay was performed as
described previously.1 All samples were run in duplicate for each condition, and experiments
were performed independently at least twice.
Series [19] deals with MMP-14 (Homo sapiens, UniProt P50281). Put plainly: Human off-target inhibition assay, MMP-14. The format is biochemical.
A short description of series [20]: Cytotoxicity assay, A549. In kind it is cell-based. As to conditions: A549 cells; adenocarcinomic human alveolar basal epithelial cells.
Series [21] has as its target ADAM17 (Homo sapiens, UniProt P78536). Put plainly: Human off-target inhibition assay, ADAM17 (TACE). In kind it is biochemical.
Series [22] deals with A549 cells.

Like-named read-outs stand apart in the source and are kept apart here.

T1 sequence (Q02RJ6 198-498): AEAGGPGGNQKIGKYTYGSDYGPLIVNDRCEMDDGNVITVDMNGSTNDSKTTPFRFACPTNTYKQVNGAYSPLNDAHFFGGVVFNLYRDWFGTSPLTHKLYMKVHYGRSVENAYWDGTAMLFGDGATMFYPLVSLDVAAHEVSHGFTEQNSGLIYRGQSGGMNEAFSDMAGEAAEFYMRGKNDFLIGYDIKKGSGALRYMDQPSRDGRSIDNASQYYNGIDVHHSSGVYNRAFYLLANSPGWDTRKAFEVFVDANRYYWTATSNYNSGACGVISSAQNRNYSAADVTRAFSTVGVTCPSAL
Sequence of ColH-PD (Q46085 331-721 limits assumed): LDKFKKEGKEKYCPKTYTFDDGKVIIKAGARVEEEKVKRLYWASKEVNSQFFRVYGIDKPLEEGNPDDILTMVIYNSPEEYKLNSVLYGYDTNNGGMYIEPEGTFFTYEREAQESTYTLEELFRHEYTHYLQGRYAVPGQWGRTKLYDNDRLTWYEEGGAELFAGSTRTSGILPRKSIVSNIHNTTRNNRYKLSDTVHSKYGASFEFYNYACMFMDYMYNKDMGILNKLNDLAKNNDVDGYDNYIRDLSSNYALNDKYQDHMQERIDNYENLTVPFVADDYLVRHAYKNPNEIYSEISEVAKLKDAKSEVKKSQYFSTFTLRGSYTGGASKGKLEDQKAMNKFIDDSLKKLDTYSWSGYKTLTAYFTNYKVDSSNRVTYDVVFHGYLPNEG
Sequence of ADAM17 (P78536 215-824): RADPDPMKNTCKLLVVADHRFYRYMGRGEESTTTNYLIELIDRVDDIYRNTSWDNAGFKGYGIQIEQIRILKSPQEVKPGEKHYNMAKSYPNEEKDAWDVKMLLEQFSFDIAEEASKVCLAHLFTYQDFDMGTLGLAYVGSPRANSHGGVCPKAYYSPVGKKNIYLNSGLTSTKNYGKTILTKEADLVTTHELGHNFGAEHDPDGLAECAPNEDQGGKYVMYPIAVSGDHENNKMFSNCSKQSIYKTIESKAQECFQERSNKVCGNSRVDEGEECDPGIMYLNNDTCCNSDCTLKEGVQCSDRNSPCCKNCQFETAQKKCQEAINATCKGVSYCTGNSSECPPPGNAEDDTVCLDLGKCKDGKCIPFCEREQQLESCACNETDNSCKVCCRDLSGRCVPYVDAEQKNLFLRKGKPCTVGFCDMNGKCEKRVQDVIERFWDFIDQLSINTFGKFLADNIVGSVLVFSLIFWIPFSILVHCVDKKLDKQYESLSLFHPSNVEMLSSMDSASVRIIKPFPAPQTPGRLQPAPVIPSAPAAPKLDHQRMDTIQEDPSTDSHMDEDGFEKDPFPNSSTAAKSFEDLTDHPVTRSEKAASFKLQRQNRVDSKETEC
Sequence of HDAC-3 (O15379 whole entry): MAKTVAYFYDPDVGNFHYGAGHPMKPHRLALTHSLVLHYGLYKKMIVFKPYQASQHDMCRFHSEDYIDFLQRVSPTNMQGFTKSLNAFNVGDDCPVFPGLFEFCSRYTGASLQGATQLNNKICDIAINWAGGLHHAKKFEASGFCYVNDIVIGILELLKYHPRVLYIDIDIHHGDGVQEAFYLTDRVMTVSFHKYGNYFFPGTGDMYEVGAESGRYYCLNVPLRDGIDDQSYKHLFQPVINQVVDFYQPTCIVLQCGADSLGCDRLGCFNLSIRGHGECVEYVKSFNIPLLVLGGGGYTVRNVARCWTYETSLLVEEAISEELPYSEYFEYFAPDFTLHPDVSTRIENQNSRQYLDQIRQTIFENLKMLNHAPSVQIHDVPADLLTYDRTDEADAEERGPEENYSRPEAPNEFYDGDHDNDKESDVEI
Sequence of HDAC-3 (Q9Y618 395-489 partner limits assumed): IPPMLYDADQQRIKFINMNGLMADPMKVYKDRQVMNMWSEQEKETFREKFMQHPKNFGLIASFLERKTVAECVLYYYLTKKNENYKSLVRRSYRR

As a reminder, the IC50 is the concentration needed to halve the response being measured. On to `O=C(O)CC1(C(=O)NCc2nc3ccccc3s2)Cc2ccccc2C1` [Compound 1], for which the IC50 in [1] was 0.159 µM.
As for `O=C(CC(=O)Nc1ccc(Cl)c(Cl)c1)NO` [Compound 2], the IC50 in series [1] was 17.4 µM.
Usually Ki stands for the dissociation constant of the complex between target and ligand, obtained from inhibition or displacement. A high value points to weaker binding. The inhibition is the drop in the measured response relative to a control, in per cent. The low end stands for a weak effect, the high end for a strong effect. Usually MIC stands for the smallest concentration in the dilution series that meets the test's criterion for growth inhibition. A lower MIC goes with inhibition by little substance. By viability is commonly meant a per cent measure of how many cells are alive, often set against a control. With `O=C(Nc1nc2ccccc2s1)C(S)Cc1ccccc1` (stereo not shown) [Compound 23, N-(Benzo[d]thiazol-2-yl)-2-mercapto-3-phenylpropanamide], in [2], the affinity corresponds to a Ki of 0.1 ± 0.01 µM. Moreover, the inhibition at 100 µM in series [3], in series [4], in [5], in series [7], in series [13] and in series [19] was less than 10% throughout. In addition, the “effect on A549 cells treated with ΔlasB PA14 supernatant (in words)” value in series [6] was “no effect”. For the same compound, the IC50 in series [8] was greater than 100 µM; in [9], greater than 100 µM; in series [12], greater than 100 µM; in series [16] it was greater than 100 µM; in [18], 0.7 ± 0.1 µM; in series [20], greater than 100 µM. Also, the concentration for half-maximal inhibition (IC50) in [21] was 10.4 ± 0.2 µM. The MIC in [10] (Pseudomonas aeruginosa, P. aeruginosa PA14) is greater than 100 µM. Besides, in series [10] (at 100 μM), the “reduction of bacterial growth” value is “less than 10%”. Also, in [11], the viability at 50 µM was found to be 80 ± 15%. Besides, the “effect on viability of A549 cells treated with wt PA14 supernatant (in words)” value in series [14] is listed as “Dose-dependent effect”. The compound also returned a survival of larvae in series [15] of 70 ± 5%. In addition, the Survival rate % is reported as 100% in [17] (2 µM), 70% in series [17] (30 µM) and 0% in [17] (100 µM). Further, the “toxicity (larvae with toxicity signs)” value in series [17] (30 µM, Table S2) is reported as 30%. Further, the embryo observation result in series [17] (50 µM, 2 dpf) was “imp. dev”; in series [17] (50 µM, 3 dpf), 5 imp. dev; in series [17] (50 µM, 4 dpf), 5 imp. dev; in [17] (50 µM, 5 dpf) it was 5 imp. dev; in series [17] (100 µM, 2 dpf) it was “imp. dev”; in series [17] (100 µM, 3 dpf), 5 imp. dev. Besides, the embryo observation came out at 5 imp. dev in [17] (100 µM, 4 dpf) and 5 imp. dev in series [17] (100 µM, 5 dpf). The “maximum tolerated concentration (MTC)” value in [17] (zebrafish embryos, until 120 hpf) is no more than 30 µM. The “ligand efficiency (LE)” value in series [18] (calculated from LasB activity) was 0.48. Besides, the “lipophilic ligand efficiency (LLE)” value in [18] (calculated from LasB activity) is reported as 3.21.
For `Cl.O=C(O)CCP(CCC(=O)O)CCC(=O)O` [TCEP, Tris(2-carboxyethyl)phosphine hydrochloride], the “activity of pure LasB” value in series [18] (0.6 mM TCEP and lower) is “no inhibition”; in series [18] (5 mM and […] TCEP), “completely lost”. The “viability of A549 cells” value in series [22] was “no effect on cell viability”.

Values taken from article PMC9112332, “Structure-Based Design of α-Substituted Mercaptoacetamides as Inhibitors of the Virulence Factor LasB from Pseudomonas aeruginosa” (ACS Infectious Diseases, 2022).
